Experimental data: the supplement of paper PMC11616607

Legend:
Test in all cases: drug sensitivity score (DSS) from 5-point dose-response viability curve (DSS (area-under-curve based score)); higher = more sensitive (stronger growth inhibition or killing); extreme values may be limits of the assay
Conditions in all cases: exposure time: 72 h; concentration range: 5 concentrations over 10,000-fold range
[1] = test system: COV362
Method in brief: (§1)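 Ovarian cancer and normal ovarian cell lines were tested in 384-well plates, with drugs dispensed acoustically (Echo 550) in DMSO or water at five concentrations covering a 10,000-fold range. After 1,500 cells per well were added, plates were incubated for 3 days at 37°C and 5% CO2, and viability was read by CellTiter-Glo luminescence on a PHERAstar FS. Breeze software gave a drug sensitivity score for each cell line and drug, where a higher score means greater sensitivity. A value of zero means no response.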

[2] = test system: OV90
Method in brief: as §1

[3] = test system: HOSE1C
Method in brief: as §1

[4] = test system: HOSE2C
Method in brief: as §1

[5] = test system: Kuramochi
Method in brief: as §1

[6] = test system: COV318
Method in brief: as §1

[7] = test system: JHOS2
Method in brief: as §1

[8] = test system: CAOV3
Method in brief: as §1

[9] = test system: Ovsaho
Method in brief: as §1

[10] = test system: OVCAR8
Method in brief: as §1

[11] = test system: OVCAR4
Method in brief: as §1

[12] = test system: OVCAR5
Method in brief: as §1

Row | SMILES | drug sensitivity score [1] | drug sensitivity score [2] | drug sensitivity score [3] | drug sensitivity score [4] | drug sensitivity score [5] | drug sensitivity score [6] | drug sensitivity score [7] | drug sensitivity score [8] | drug sensitivity score [9] | drug sensitivity score [10] | drug sensitivity score [11] | drug sensitivity score [12]
1 | O=C(Nc1cccc(Nc2ncc(Br)c(NCCc3cnc[nH]3)n2)c1)N1CCCC1 [BX-912] | 1.3 | 7.4 | 4.5 | 8 | 1.4 | 0.4 | 2.5 | 10.3 | 3.5 | 4.7 | 3.7 | 2.4
2 | CNC(=O)c1ccc2cc([C@@]3(O)CCn4cncc43)ccc2c1 [Orteronel] | 0 | 0 | 0 | 0 | 0 | 0 | 0 | 0 | 0 | 0 | 0 | 0
3 | COC(=O)c1ccc2c(c1)NC(=O)/C2=C(\Nc1ccc(N(C)C(=O)CN2CCN(C)CC2)cc1)c1ccccc1 [Nintedanib] | 1.8 | 3.5 | 3.1 | 6.3 | 4.2 | 2.5 | 0.6 | 0.2 | 5.5 | 3.2 | 3.6 | 7.9
4 | O=C(Nc1ccncc1)C(=O)c1cn(Cc2ccc(Cl)cc2)c2ccccc12 [Indibulin] | 1.8 | 5.9 | 20.1 | 18.3 | 7.2 | 2.5 | 6.8 | 7.2 | 7.9 | 6.4 | 5.5 | 5.7
5 | CC(C)(C)Cn1c(N)nc2ccc(-c3[nH]c(C(C)(C)C)nc3-c3ccc(F)cc3)nc21 [Ralimetinib] | 1.4 | 4.1 | 1.1 | 0.5 | 6.6 | 2.6 | 1.8 | 2.9 | 1.8 | 3.1 | 1.1 | 4.3
6 | CC(C)C(=O)Nc1ccc([N+](=O)[O-])c(C(F)(F)F)c1 [Flutamide] | 0 | 0 | 0.2 | 0 | 0.7 | 0.2 | 0.3 | 0 | 0 | 0.3 | 0.5 | 0.1
7 | CCN(CC)CCNC(=O)c1c(C)[nH]c(/C=C2\C(=O)Nc3ccc(-c4csc(-c5ccccc5)n4)cc32)c1C [Amcasertib] | 0.5 | 0 | 8.8 | 5.2 | 0 | 8.8 | 0 | 0 | 0 | 0.6 | 0.8 | 1.3
8 | Nc1nc(F)nc2c1ncn2[C@@H]1O[C@H](CO)[C@@H](O)[C@@H]1O [Fludarabine] | 0.5 | 1.5 | 25.2 | 22.6 | 0 | 0 | 0 | 0.2 | 0.1 | 4.4 | 0.2 | 0
9 | CCCN(CCC)C(=O)C1=Cc2ccc(-c3ccc(C(=O)N4CCCC4)cc3)cc2N=C(N)C1 [Motolimod] | 0 | 1.9 | 0 | 0 | 0.3 | 2.3 | 1.8 | 0 | 0 | 0.8 | 0.9 | 0.5
10 | COc1cccc(-c2ccc(NC(=O)C3=C(C(=O)O)CCC3)c(F)c2)c1 [Vidofludimus] | 0 | 0 | 6 | 3.9 | 0 | 0 | 0.1 | 0 | 0.2 | 2.1 | 0 | 0
11 | C=CC(=O)N1CCC[C@@H](n2nc(-c3ccc(Oc4ccccc4)cc3)c3c(N)ncnc32)C1 [Ibrutinib] | 0.5 | 0 | 0 | 0 | 2.8 | 0 | 0 | 3 | 2.5 | 0 | 1.5 | 3.1
12 | CCOc1ccccc1-n1c(C(C)N2CCN(C(=O)COc3ccc(Cl)cc3)CC2)nc2ccccc2c1=O (configuration not stated) [Erastin] | 1.4 | 1.4 | 0 | 0 | 0 | 1.9 | 0 | 0.9 | 0 | 7.9 | 9.1 | 0.9
13 | O=C1NC(=O)[C@@H](c2cn3c4c(cccc24)CCC3)[C@@H]1c1c[nH]c2ccccc12 [Tivantinib] | 1.6 | 2.8 | 5.2 | 4.7 | 2.9 | 1.9 | 3 | 3.7 | 4.2 | 4.1 | 1.6 | 4
14 | CN1CCN(C(=O)c2ccc3cc(CCNc4ncnc5ccc(C#N)cc45)ccc3c2)CC1 [Senexin B] | 0 | 0.5 | 0 | 0 | 2.6 | 0 | 0 | 0.2 | 1.3 | 0.2 | 1.1 | 1.7
15 | CC(C)(C)NC(=O)[C@H]1CC[C@H]2[C@@H]3CC[C@H]4NC(=O)C=C[C@]4(C)[C@H]3CC[C@]12C [Finasteride] | 0 | 0 | 0 | 0 | 0 | 0 | 0 | 0 | 0 | 0 | 0 | 0
16 | CON(C)C(=O)N1N=C(c2cc(F)ccc2F)S[C@@]1(CCCN)c1ccccc1 [Filanesib] | 1.4 | 10.8 | 21.8 | 16.2 | 9.5 | 8.7 | 7.4 | 21.3 | 8.8 | 17.7 | 6.8 | 17.6

Row | SMILES | drug sensitivity score [1] | drug sensitivity score [2] | drug sensitivity score [3] | drug sensitivity score [4] | drug sensitivity score [5] | drug sensitivity score [6] | drug sensitivity score [7] | drug sensitivity score [8] | drug sensitivity score [9] | drug sensitivity score [10] | drug sensitivity score [11] | drug sensitivity score [12]
17 | Clc1ccc(C(c2ccccc2Cl)C(Cl)Cl)cc1 (configuration not stated) [Mitotane] | 0 | 0.5 | 0 | 0 | 0 | 0.1 | 0 | 0 | 0 | 0 | 0.3 | 0
18 | CC(O)(CS(=O)(=O)c1ccc(F)cc1)C(=O)Nc1ccc(C#N)c(C(F)(F)F)c1 (configuration not stated) [Bicalutamide] | 0 | 0 | 8.4 | 0 | 0.2 | 0 | 0 | 0 | 0 | 0.3 | 0.5 | 0.7
19 | COc1cccc2c1c(O)c(C(=O)N(C)c1ccc(C(F)(F)F)cc1)c(=O)n2C [Tasquinimod] | 0 | 0 | 0 | 0 | 0.2 | 0 | 0.6 | 0 | 2 | 0 | 1.9 | 0
20 | CC(C)NC[C@@H](C(=O)N1CCN(c2ncnc3c2[C@H](C)C[C@H]3O)CC1)c1ccc(Cl)cc1 [Ipatasertib] | 0 | 0.5 | 2.7 | 4.4 | 2.6 | 0.1 | 0.1 | 1.9 | 1.6 | 0.5 | 0 | 3
21 | CCN(CC)CCCC(C)Nc1c2ccc(Cl)cc2nc2ccc(OC)cc12 (configuration not stated) [Mepacrine] | 10.3 | 16 | 9.7 | 8.2 | 13.2 | 10.3 | 10.5 | 9.4 | 13.1 | 12.1 | 15.2 | 13.1
22 | CC[C@@H]1C(=O)N(C)c2cnc(Nc3ccc(C(=O)NC4CCN(C)CC4)cc3OC)nc2N1C1CCCC1 [BI 2536] | 2.1 | 15 | 12.5 | 8.7 | 11.4 | 3.9 | 11.9 | 18.3 | 19.7 | 23.5 | 3.9 | 17.7
23 | Nc1cccc2c1C(=O)N(C1CCC(=O)NC1=O)C2=O (configuration not stated) [Pomalidomide] | 0 | 0 | 0 | 0 | 0 | 0 | 0 | 0 | 0 | 0 | 0 | 0
24 | C[C@@]1(C(=O)Nc2ccc(F)nc2)CCCN1c1nc(Nc2cc(C3CC3)n[nH]2)c2cccn2n1 | 6.5 | 7.4 | 8.9 | 18.7 | 4.8 | 3.1 | 3.3 | 20.2 | 7.5 | 5.2 | 7.2 | 14.4
25 | CC(=O)c1cnc2ccc(-c3cc(Cl)c(O)c(Cl)c3)nc2c1N[C@H]1CC[C@H](CN(C)C)CC1 [OTS167] | 5.4 | 7.5 | 19.8 | 12.4 | 10.6 | 15.1 | 13.4 | 13.2 | 9.1 | 13.6 | 7.5 | 11.8
26 | COc1cc(N2CCN(C)CC2)ccc1Nc1nccc(-c2cn(C)c3cnccc23)n1 [AZ191] | 2.2 | 5.9 | 1 | 1.9 | 1.4 | 4.1 | 4.4 | 0 | 1.6 | 2.2 | 0.6 | 2
27 | CCS(=O)(=O)N1CCN(c2ccc(Nc3ncc(C(N)=O)c(NC4CC4)n3)cc2)CC1 [Cerdulatinib] | 2.7 | 0.6 | 0 | 0.8 | 0 | 0 | 3.5 | 0.2 | 0 | 0 | 0.3 | 0
28 | Cn1cc(-c2cnn3c(N)c(Br)c([C@@H]4CCCNC4)nc23)cn1 [MK-8776] | 0 | 1.1 | 5.1 | 5.1 | 0 | 0 | 0 | 1.3 | 0 | 1 | 0 | 0.4
29 | CN(C)C/C=C/C(=O)Nc1cc2c(Nc3ccc(F)c(Cl)c3)ncnc2cc1O[C@H]1CCOC1 [Afatinib] | 1.3 | 0 | 0 | 0 | 2.3 | 0 | 2.7 | 8.2 | 3.2 | 0.3 | 1 | 3.4
30 | COc1cccc(OCCCN)c1-c1cc(Nc2cnc(C#N)cn2)n[nH]1 [Prexasertib] | 16.8 | 16.7 | 40.9 | 36.7 | 19.8 | 22.9 | 22.4 | 24.8 | 16.1 | 30.1 | 21.8 | 25
31 | COc1cc2c(cc1OC(C)C)[C@H](c1ccc(Cl)cc1)N(c1ccc(N(C)C[C@H]3CC[C@H](N4CCN(C)C(=O)C4)CC3)cc1)C(=O)C2 [NVP-CGM097] | 4.6 | 5.4 | 11.4 | 16.5 | 5.5 | 5.9 | 6.4 | 3.3 | 5.8 | 5.7 | 5 | 7.2
